Experimental data published in ChEMBL document CHEMBL3751693, “Synthesis, antimicrobial evaluation and molecular modeling of 5-hydroxyisoquinolinium salt series; the effect of the hydroxyl moiety” (Bioorg Med Chem, 2016).

System: Aspergillus fumigatus
Test: Antimicrobial activity against Aspergillus fumigatus 231 after 48 hrs by spectrophotometry
Format: functional
Details: Aspergillus fumigatus, 231, 48 h

SMILES | MFC [µM] | MIC [µM]
CCCCCCCCCC[n+]1ccc2c(O)cccc2c1 | > 500 | > 500

System: Escherichia coli
Test: Antimicrobial activity against clinical isolate Escherichia coli CCM 4517 after 48 hrs
Format: functional
Details: CCM 4517, 48 h

SMILES | MBC [µM] | MIC [µM]
CCCCCCCCCC[n+]1ccc2c(O)cccc2c1 | 63 | 63

System: Lichtheimia corymbifera
Test: Antimicrobial activity against Absidia corymbifera 272 after 48 hrs by spectrophotometry
Format: functional
Details: Lichtheimia corymbifera, 272, 48 h

SMILES | MFC [µM] | MIC [µM]
CCCCCCCCCC[n+]1ccc2c(O)cccc2c1 | > 500 | > 500

System: Staphylococcus aureus
Test: Antimicrobial activity against clinical isolate Staphylococcus aureus CCM 451608 after 24 hrs
Format: functional
Details: CCM 451608, 24 h

SMILES | MIC [µM]
CCCCCCCCCC[n+]1ccc2c(O)cccc2c1 | 16

System: Candida albicans
Test: Antimicrobial activity against Candida albicans ATCC 44859 after 48 hrs by spectrophotometry
Format: functional
Details: ATCC 44859, 48 h

SMILES | MFC [µM] | MIC [µM]
CCCCCCCCCC[n+]1ccc2c(O)cccc2c1 | 250 | 250

System: Staphylococcus aureus
Test: Antimicrobial activity against clinical isolate methicillin-resistant Staphylococcus aureus H 599608 after 48 hrs
Format: functional
Details: H 599608, 48 h

SMILES | MBC [µM] | MIC [µM]
CCCCCCCCCC[n+]1ccc2c(O)cccc2c1 | 16 | 31

System: Staphylococcus epidermidis
Test: Antimicrobial activity against clinical isolate Staphylococcus epidermidis H 696608 after 48 hrs
Format: functional
Details: H 696608, 48 h

SMILES | MBC [µM] | MIC [µM]
CCCCCCCCCC[n+]1ccc2c(O)cccc2c1 | 250 | 250

System: Klebsiella pneumoniae
Test: Antimicrobial activity against clinical isolate Klebsiella pneumoniae D 1175008 after 24 hrs
Format: functional
Details: D 1175008, 24 h

SMILES | MIC [µM]
CCCCCCCCCC[n+]1ccc2c(O)cccc2c1 | 63

System: Trichosporon asahii
Test: Antimicrobial activity against Trichosporon asahii 1188 after 48 hrs by spectrophotometry
Format: functional
Details: Trichosporon asahii, 1188, 48 h

SMILES | MFC [µM] | MIC [µM]
CCCCCCCCCC[n+]1ccc2c(O)cccc2c1 | 500 | 250

System: Candida tropicalis
Test: Antimicrobial activity against Candida tropicalis 156 after 24 hrs by spectrophotometry
Format: functional
Details: Candida tropicalis, 156, 24 h

SMILES | MIC [µM]
CCCCCCCCCC[n+]1ccc2c(O)cccc2c1 | 125

System: Klebsiella pneumoniae
Test: Antimicrobial activity against clinical isolate ESBL-Klebsiella pneumoniae J 1436808 after 48 hrs
Format: functional
Details: J 1436808, 48 h

SMILES | MBC [µM] | MIC [µM]
CCCCCCCCCC[n+]1ccc2c(O)cccc2c1 | 500 | 500

System: Klebsiella pneumoniae
Test: Antimicrobial activity against clinical isolate Klebsiella pneumoniae D 1175008 after 48 hrs
Format: functional
Details: D 1175008, 48 h

SMILES | MBC [µM] | MIC [µM]
CCCCCCCCCC[n+]1ccc2c(O)cccc2c1 | 63 | 63

System: Lichtheimia corymbifera
Test: Antimicrobial activity against Absidia corymbifera 272 after 24 hrs by spectrophotometry
Format: functional
Details: Lichtheimia corymbifera, 272, 24 h

SMILES | MIC [µM]
CCCCCCCCCC[n+]1ccc2c(O)cccc2c1 | > 500

System: Staphylococcus epidermidis
Test: Antimicrobial activity against clinical isolate Staphylococcus epidermidis H 696608 after 24 hrs
Format: functional
Details: H 696608, 24 h

SMILES | MIC [µM]
CCCCCCCCCC[n+]1ccc2c(O)cccc2c1 | 250

System: Enterococcus sp.
Test: Antimicrobial activity against clinical isolate Enterococcus sp. J 1436508 after 48 hrs
Format: functional
Details: J 1436508, 48 h

SMILES | MBC [µM] | MIC [µM]
CCCCCCCCCC[n+]1ccc2c(O)cccc2c1 | 500 | 500

System: Klebsiella pneumoniae
Test: Antimicrobial activity against clinical isolate ESBL-Klebsiella pneumoniae J 1436808 after 24 hrs
Format: functional
Details: J 1436808, 24 h

SMILES | MIC [µM]
CCCCCCCCCC[n+]1ccc2c(O)cccc2c1 | 500

System: Candida tropicalis
Test: Antimicrobial activity against Candida tropicalis 156 after 48 hrs by spectrophotometry
Format: functional
Details: Candida tropicalis, 156, 48 h

SMILES | MFC [µM] | MIC [µM]
CCCCCCCCCC[n+]1ccc2c(O)cccc2c1 | 500 | 125

System: Staphylococcus aureus
Test: Antimicrobial activity against clinical isolate Staphylococcus aureus CCM 451608 after 48 hrs
Format: functional
Details: CCM 451608, 48 h

SMILES | MBC [µM] | MIC [µM]
CCCCCCCCCC[n+]1ccc2c(O)cccc2c1 | 63 | 16

System: Pseudomonas aeruginosa
Test: Antimicrobial activity against clinical isolate Pseudomonas aeruginosa CCM 1961 after 72 hrs
Format: functional
Details: CCM 1961, 72 h

SMILES | MIC [µM]
CCCCCCCCCC[n+]1ccc2c(O)cccc2c1 | 250

System: Trichophyton mentagrophytes
Test: Antimicrobial activity against Trichophyton mentagrophytes 445 after 120 hrs by spectrophotometry
Format: functional
Details: Trichophyton mentagrophytes, 445, 120 h

SMILES | MFC [µM] | MIC [µM]
CCCCCCCCCC[n+]1ccc2c(O)cccc2c1 | 125 | 31

System: Enterococcus sp.
Test: Antimicrobial activity against clinical isolate Enterococcus sp. J 1436508 after 24 hrs
Format: functional
Details: J 1436508, 24 h

SMILES | MIC [µM]
CCCCCCCCCC[n+]1ccc2c(O)cccc2c1 | 500

System: Candida albicans
Test: Antimicrobial activity against Candida albicans ATCC 44859 after 24 hrs by spectrophotometry
Format: functional
Details: ATCC 44859, 24 h

SMILES | MIC [µM]
CCCCCCCCCC[n+]1ccc2c(O)cccc2c1 | 250

System: Escherichia coli
Test: Antimicrobial activity against clinical isolate Escherichia coli CCM 4517 after 24 hrs
Format: functional
Details: CCM 4517, 24 h

SMILES | MIC [µM]
CCCCCCCCCC[n+]1ccc2c(O)cccc2c1 | 63

System: Nakaseomyces glabratus
Test: Antimicrobial activity against Candida glabrata 20/I after 48 hrs by spectrophotometry
Format: functional
Details: not given

SMILES | MFC [µM] | MIC [µM]
CCCCCCCCCC[n+]1ccc2c(O)cccc2c1 | 63 | 16

System: Staphylococcus aureus
Test: Antimicrobial activity against clinical isolate methicillin-resistant Staphylococcus aureus H 599608 after 24 hrs
Format: functional
Details: H 599608, 24 h

SMILES | MIC [µM]
CCCCCCCCCC[n+]1ccc2c(O)cccc2c1 | 31

System: Nakaseomyces glabratus
Test: Antimicrobial activity against Candida glabrata 20/I after 24 hrs by spectrophotometry
Format: functional
Details: not given

SMILES | MIC [µM]
CCCCCCCCCC[n+]1ccc2c(O)cccc2c1 | 16

System: Aspergillus fumigatus
Test: Antimicrobial activity against Aspergillus fumigatus 231 after 24 hrs by spectrophotometry
Format: functional
Details: Aspergillus fumigatus, 231, 24 h

SMILES | MIC [µM]
CCCCCCCCCC[n+]1ccc2c(O)cccc2c1 | > 500

System: Pichia kudriavzevii
Test: Antimicrobial activity against Candida krusei E28 after 48 hrs by spectrophotometry
Format: functional
Details: E28, 48 h

SMILES | MFC [µM] | MIC [µM]
CCCCCCCCCC[n+]1ccc2c(O)cccc2c1 | 31 | 31

System: Pichia kudriavzevii
Test: Antimicrobial activity against Candida krusei E28 after 24 hrs by spectrophotometry
Format: functional
Details: E28, 24 h

SMILES | MIC [µM]
CCCCCCCCCC[n+]1ccc2c(O)cccc2c1 | 31

System: Trichophyton mentagrophytes
Test: Antimicrobial activity against Trichophyton mentagrophytes 445 after 72 hrs by spectrophotometry
Format: functional
Details: Trichophyton mentagrophytes, 445, 72 h

SMILES | MIC [µM]
CCCCCCCCCC[n+]1ccc2c(O)cccc2c1 | 31

System: not listed separately
Test: Cytotoxicity against CHOK1 cells after 24 hrs by MTT assay
Format: cell-based
Details: Cricetulus griseus, CHO-K1, 24 h

SMILES | IC50 [µM]
CCCCCCCCCC[n+]1ccc2c(O)cccc2c1 | 92

System: Trichosporon asahii
Test: Antimicrobial activity against Trichosporon asahii 1188 after 24 hrs by spectrophotometry
Format: functional
Details: Trichosporon asahii, 1188, 24 h

SMILES | MIC [µM]
CCCCCCCCCC[n+]1ccc2c(O)cccc2c1 | 250

System: Pseudomonas aeruginosa
Test: Antimicrobial activity against clinical isolate Pseudomonas aeruginosa CCM 1961 after 120 hrs
Format: functional
Details: CCM 1961, 120 h

SMILES | MBC [µM] | MIC [µM]
CCCCCCCCCC[n+]1ccc2c(O)cccc2c1 | > 500 | 250
